# From patent US20070128217A1 (priority 2003, published 2007)
# Tests used:
# [1] = system: antibodies in sera from SARS patients (sera 1a, 1b, 2, 6, 37, 62, London, SARS-yellow, SARS-green); format: binding, human; parameters: Binding of serum 6 to linear peptides of protein X1 of SARS-CoV Urbani / Binding of serum 37 to linear peptides of protein X1 of SARS-CoV Urbani / Binding of serum 6 to looped/cyclic peptide (PEPSCAN-ELISA) / Binding of serum 37 to looped/cyclic peptide (PEPSCAN-ELISA) / Binding of serum 37 to looped/cyclic peptides of protein X1 of SARS-CoV Urbani / Binding of serum 6 to linear peptides of protein X2 / Binding of serum 37 to linear peptides of protein X2 / Binding of serum 37 to looped/cyclic peptides of protein X2 of SARS-CoV Urbani / Binding of serum 6 to linear peptides of protein M of SARS-CoV Urbani / Binding of serum 37 to linear peptides of protein M of SARS-CoV Urbani / Binding of serum 6 to looped/cyclic peptides of protein M of SARS-CoV Urbani / Binding of serum 37 to looped/cyclic peptides of protein M of SARS-CoV Urbani / Binding of serum 6 to linear peptides of protein X3 of SARS-CoV Urbani / Binding of serum 37 to linear peptides of protein X3 of SARS-CoV Urbani / Binding of serum 37 to looped/cyclic peptides of protein X3 of SARS-CoV Urbani / Binding of serum 6 to linear peptides of protein X4 of SARS-CoV Urbani / Binding of serum 37 to linear peptides of protein X4 of SARS-CoV Urbani / Binding of serum 37 to looped/cyclic peptides of protein X4 of SARS-CoV Urbani / Binding of serum 6 to linear peptides of protein X5 of SARS-CoV Urbani / Binding of serum 37 to linear peptides of protein X5 of SARS-CoV Urbani / Binding of serum 37 to looped/cyclic peptides of protein X5 of SARS-CoV Urbani / Binding of serum 6 to linear peptides of protein N of SARS-CoV Urbani / Binding of serum 37 to linear peptides of protein N of SARS-CoV Urbani / Binding of serum 6 to linear peptide (PEPSCAN-ELISA) / Binding of serum 1a to looped/cyclic peptides of protein N of SARS-CoV Urbani / Binding of serum 1b to looped/cyclic peptides of protein N of SARS-CoV Urbani / Binding of serum 2 to looped/cyclic peptides of protein N of SARS-CoV Urbani / Binding of serum 6 to looped/cyclic peptides of protein N of SARS-CoV Urbani / Binding of serum 37 to looped/cyclic peptides of protein N of SARS-CoV Urbani / Binding of serum 62 to looped/cyclic peptides of protein N of SARS-CoV Urbani / Binding of serum London to looped/cyclic peptides of protein N of SARS-CoV Urbani / Binding of serum SARS-green to looped/cyclic peptides of protein N of SARS-CoV Urbani: unit not given here
# [2] = system: control sera (pooled serum of ten healthy LUMC hospital workers; commercial negative donor pooled serum from the Dutch bloodbank); format: binding, human; parameters: Binding of Control serum LUMC to linear peptides / Binding of Control serum Blood-bank to linear peptides / Binding of Control serum LUMC to looped peptides / Binding of Control Serum Blood-Bank to Looped peptides / Binding of Control serum LUMC to linear peptides of the protein M of SARS-CoV Urbani / Binding of Control serum Blood-bank to linear peptides of the protein M of SARS-CoV Urbani / Binding of Control serum LUMC to looped peptides of the protein M of SARS-CoV Urbani / Binding of Control Serum Blood-Bank to Looped peptides of the protein M of SARS-CoV Urbani: unit not given here
# [3] = system: rabbit serum obtained by immunizing a rabbit with the SARS-CoV strain Frankfurt 1; format: binding; parameters: Binding of a rabbit serum to linear peptides / Binding of a rabbit serum to looped peptides / Rabbit serum linear peptides / Rabbit serum looped peptides / Binding of a rabbit serum to linear peptides of protein N of SARS-CoV Urbani (Rabbit serum linear peptides) / Binding of a rabbit serum to looped/cyclic peptides of protein N of SARS-CoV Urbani (Rabbit serum looped peptides): unit not given here
sequence,measurement,setting,value
PFHRWHTMVQTCTPN,Binding of serum 1a to linear peptides of protein X5 of SARS-CoV Urbani,[1],0.7
same,Binding of serum 1a to looped/cyclic peptides of protein X5 of SARS-CoV Urbani,[1],0.6
same,Binding of serum 1b to linear peptides of protein X5 of SARS-CoV Urbani,[1],0.7
same,Binding of serum 1b to looped/cyclic peptides of protein X5 of SARS-CoV Urbani,[1],0.5
same,Binding of serum 2 to linear peptides of protein X5 of SARS-CoV Urbani,[1],0.7
same,Binding of serum 2 to looped/cyclic peptides of protein X5 of SARS-CoV Urbani,[1],0.6
same,Binding of serum 6 to linear peptides of protein X5 of SARS-CoV Urbani,[1],0.7
same,Binding of serum 6 to looped/cyclic peptides of protein X5 of SARS-CoV Urbani,[1],0.3
same,Binding of serum 37 to linear peptides of protein X5 of SARS-CoV Urbani,[1],0.7
same,Binding of serum 37 to looped/cyclic peptides of protein X5 of SARS-CoV Urbani,[1],0.5
same,Binding of serum 62 to linear peptides of protein X5 of SARS-CoV Urbani,[1],0.7
same,Binding of serum 62 to looped/cyclic peptides of protein X5 of SARS-CoV Urbani,[1],0.3
same,Binding of serum London to linear peptides of protein X5 of SARS-CoV Urbani,[1],0.7
same,Binding of serum London to looped/cyclic peptides of protein X5 of SARS-CoV Urbani,[1],0.2
same,Binding of serum SARS-green to linear peptides of protein X5 of SARS-CoV Urbani,[1],0.5
same,Binding of serum SARS-green to looped/cyclic peptides of protein X5 of SARS-CoV Urbani,[1],0.3
same,Binding of serum SARS-yellow to linear peptides of protein X5 of SARS-CoV Urbani,[1],0.4
same,Binding of serum SARS-yellow to looped/cyclic peptides of protein X5 of SARS-CoV Urbani,[1],0.3
same,Binding of Control Serum Blood-Bank to Looped peptides,[2],0.5
same,Binding of Control serum Blood-bank to linear peptides,[2],0.7
same,Binding of Control serum LUMC to linear peptides,[2],0.5
same,Binding of Control serum LUMC to looped peptides,[2],0.4
same,Rabbit serum linear peptides,[3],0.5
same,Rabbit serum looped peptides,[3],0.4
PLLYDANYFVCWHTH,Binding of serum 1a to linear peptides of protein X1 of SARS-CoV Urbani,[1],0.9
same,Binding of serum 1a to looped/cyclic peptide (PEPSCAN-ELISA),[1],0.6
same,Binding of serum 1b to linear peptides of protein X1 of SARS-CoV Urbani,[1],0.8
same,Binding of serum 1b to looped/cyclic peptide (PEPSCAN-ELISA),[1],0.6
same,Binding of serum 2 to linear peptides of protein X1 of SARS-CoV Urbani,[1],0.6
same,Binding of serum 2 to looped/cyclic peptide (PEPSCAN-ELISA),[1],0.4
same,Binding of serum 6 to linear peptides of protein X1 of SARS-CoV Urbani,[1],0.6
same,Binding of serum 6 to looped/cyclic peptide (PEPSCAN-ELISA),[1],0.4
same,Binding of serum 37 to linear peptides of protein X1 of SARS-CoV Urbani,[1],0.8
same,Binding of serum 37 to looped/cyclic peptide (PEPSCAN-ELISA),[1],0.7
same,Binding of serum 62 to linear peptides of protein X1 of SARS-CoV Urbani,[1],0.8
same,Binding of serum 62 to looped/cyclic peptide (PEPSCAN-ELISA),[1],0.7
same,Binding of serum London to linear peptides of protein X1 of SARS-CoV Urbani,[1],0.4
same,Binding of serum London to looped/cyclic peptide (PEPSCAN-ELISA),[1],0.2
same,Binding of serum SARS-green to linear peptides of protein X1 of SARS-CoV Urbani,[1],0.4
same,Binding of serum SARS-green to looped/cyclic peptide (PEPSCAN-ELISA),[1],0.3
same,Binding of serum SARS-yellow to linear peptides of protein X1 of SARS-CoV Urbani,[1],0.5
same,Binding of serum SARS-yellow to looped/cyclic peptide (PEPSCAN-ELISA),[1],0.4
same,Binding of Control Serum Blood-Bank to Looped peptides,[2],0.6
same,Binding of Control serum Blood-bank to linear peptides,[2],0.7
same,Binding of Control serum LUMC to linear peptides,[2],0.6
same,Binding of Control serum LUMC to looped peptides,[2],0.6
same,Binding of a rabbit serum to linear peptides,[3],0.1
same,Binding of a rabbit serum to looped peptides,[3],0.5
YSPLFLIVAALVFLI,Binding of serum 1a to linear peptides of protein X4 of SARS-CoV Urbani,[1],0.7
same,Binding of serum 1a to looped/cyclic peptides of protein X4 of SARS-CoV Urbani,[1],0.7
same,Binding of serum 1b to linear peptides of protein X4 of SARS-CoV Urbani,[1],0.3
same,Binding of serum 1b to looped/cyclic peptides of protein X4 of SARS-CoV Urbani,[1],0.3
same,Binding of serum 2 to linear peptides of protein X4 of SARS-CoV Urbani,[1],0.5
same,Binding of serum 2 to looped/cyclic peptides of protein X4 of SARS-CoV Urbani,[1],0.6
same,Binding of serum 6 to linear peptides of protein X4 of SARS-CoV Urbani,[1],0.5
same,Binding of serum 6 to looped/cyclic peptides of protein X4 of SARS-CoV Urbani,[1],0.4
same,Binding of serum 37 to linear peptides of protein X4 of SARS-CoV Urbani,[1],0.7
same,Binding of serum 37 to looped/cyclic peptides of protein X4 of SARS-CoV Urbani,[1],0.6
same,Binding of serum 62 to linear peptides of protein X4 of SARS-CoV Urbani,[1],0.7
same,Binding of serum 62 to looped/cyclic peptides of protein X4 of SARS-CoV Urbani,[1],0.6
same,Binding of serum London to linear peptides of protein X4 of SARS-CoV Urbani,[1],0.7
same,Binding of serum London to looped/cyclic peptides of protein X4 of SARS-CoV Urbani,[1],0.3
same,Binding of serum SARS-green to linear peptides of protein X4 of SARS-CoV Urbani,[1],0.5
same,Binding of serum SARS-green to looped/cyclic peptides of protein X4 of SARS-CoV Urbani,[1],0.6
same,Binding of serum SARS-yellow to linear peptides of protein X4 of SARS-CoV Urbani,[1],0.4
same,Binding of serum SARS-yellow to looped/cyclic peptides of protein X4 of SARS-CoV Urbani,[1],0.4
same,Binding of Control Serum Blood-Bank to Looped peptides,[2],0.4
same,Binding of Control serum Blood-bank to linear peptides,[2],0.6
same,Binding of Control serum LUMC to linear peptides,[2],0.5
same,Binding of Control serum LUMC to looped peptides,[2],0.7
same,Rabbit serum linear peptides,[3],0.3
same,Rabbit serum looped peptides,[3],0.5
